In paper PMC11053447, “Human ABC and SLC Transporters: The Culprit Responsible for Unspecific PSMA-617 Uptake?” (Pharmaceuticals, 2024):
Where a SMILES comes first, the peptide text is derived from it. [ ]: non-standard residue; d: D form. Sar = CNCC(=O)O

Assays:
[1] = target: T1, human OCT3 (Homo sapiens, UniProt O75751); assay: SLC transporter substrate assay, HEK293-OCT3-LV vs control HEK293-Mock-LV cells; assay type: in vitro ADME; details: 3 min
T1 construct: host or cells: HEK293-OCT3-LV
T1 sequence (O75751 1-556): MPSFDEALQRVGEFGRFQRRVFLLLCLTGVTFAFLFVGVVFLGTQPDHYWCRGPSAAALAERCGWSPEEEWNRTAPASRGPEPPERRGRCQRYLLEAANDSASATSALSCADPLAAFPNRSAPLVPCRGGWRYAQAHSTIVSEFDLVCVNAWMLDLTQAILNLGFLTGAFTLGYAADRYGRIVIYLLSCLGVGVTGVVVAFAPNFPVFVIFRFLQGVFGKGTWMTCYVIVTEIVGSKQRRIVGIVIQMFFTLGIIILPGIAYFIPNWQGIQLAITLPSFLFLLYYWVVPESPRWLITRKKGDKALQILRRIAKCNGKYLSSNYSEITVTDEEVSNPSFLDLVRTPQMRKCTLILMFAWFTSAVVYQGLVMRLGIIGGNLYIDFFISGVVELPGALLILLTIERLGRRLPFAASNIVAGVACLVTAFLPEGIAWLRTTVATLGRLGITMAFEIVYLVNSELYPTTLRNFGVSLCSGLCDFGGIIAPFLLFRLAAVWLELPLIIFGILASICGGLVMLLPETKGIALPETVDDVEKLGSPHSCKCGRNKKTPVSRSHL
Experimental: (§1) SI4. Results of transporter substrate assays (SLC)
(§2) Human Incubation Positive control substrate/ Control Special Incubation Assay […]
(Cell line) at 37°C [min] [h] […]
into transfected and control cells.
(§3) Fold accumulation = UPTTRP
(§4) PSMA-617 in SLC transporters.
(§5) NA: not analyzed. Test substances were considered as substrates in case of fold accumulation values > 2 combined with inhibition values higher than 50%.
4.7 Organic cation transporter OCT3
(HEK293-OCT3-LV) and control cells (HEK293-Mock-LV) applying 2- and 20-minute incubation periods, measured in SLC transporter substrate assay. […] Concentrations are nominal.
Table S16: ([α,β-3H]Nal)Lu-PSMA-617-accumulation in OCT3 transporter-expressing (HEK293-OCT3-LV) and control […]
(§6) Conditions Accumulation (pmol/mg protein)
Compound Nominal In OCT3 Fold concentration Minutes transporter In control Active accumulation
(§7) [µM] expressing cells transport
(§8) Positive control (accumulation in cpm)
MPP +: 1-methyl -4-phenylpyridinium.

[2] = target: T2, human OAT4 (Homo sapiens, UniProt Q9NSA0); assay: SLC transporter substrate assay, HEK293-OAT4-LV vs control HEK293-Mock-LV cells; details: 1 min
T2 sequence (Q9NSA0 1-550): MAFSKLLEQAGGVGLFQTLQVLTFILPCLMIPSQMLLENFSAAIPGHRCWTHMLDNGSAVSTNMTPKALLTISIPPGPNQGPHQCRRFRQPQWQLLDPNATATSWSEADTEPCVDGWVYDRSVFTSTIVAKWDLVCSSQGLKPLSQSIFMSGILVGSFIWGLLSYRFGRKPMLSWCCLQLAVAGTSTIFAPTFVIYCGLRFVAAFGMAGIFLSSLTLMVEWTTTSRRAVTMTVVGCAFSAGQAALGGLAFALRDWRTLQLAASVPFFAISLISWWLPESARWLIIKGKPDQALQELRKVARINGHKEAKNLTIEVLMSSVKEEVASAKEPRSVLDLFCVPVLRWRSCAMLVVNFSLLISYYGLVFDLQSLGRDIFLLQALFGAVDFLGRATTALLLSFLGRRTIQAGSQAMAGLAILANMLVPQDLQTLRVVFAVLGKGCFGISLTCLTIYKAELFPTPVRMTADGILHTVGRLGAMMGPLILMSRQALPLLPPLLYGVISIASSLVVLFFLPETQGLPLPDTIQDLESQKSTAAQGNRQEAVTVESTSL

[3] = target: T3, human OAT2v1 (Homo sapiens, UniProt Q9Y694); assay: SLC transporter substrate assay, HEK293-OAT2v1-LV vs control HEK293-Mock-LV cells; assay type: in vitro ADME; details: 1 min
T3 construct: host or cells: HEK293-OAT2v1-LV
T3 sequence (Q9Y694 1-546 isoform Q9Y694-2): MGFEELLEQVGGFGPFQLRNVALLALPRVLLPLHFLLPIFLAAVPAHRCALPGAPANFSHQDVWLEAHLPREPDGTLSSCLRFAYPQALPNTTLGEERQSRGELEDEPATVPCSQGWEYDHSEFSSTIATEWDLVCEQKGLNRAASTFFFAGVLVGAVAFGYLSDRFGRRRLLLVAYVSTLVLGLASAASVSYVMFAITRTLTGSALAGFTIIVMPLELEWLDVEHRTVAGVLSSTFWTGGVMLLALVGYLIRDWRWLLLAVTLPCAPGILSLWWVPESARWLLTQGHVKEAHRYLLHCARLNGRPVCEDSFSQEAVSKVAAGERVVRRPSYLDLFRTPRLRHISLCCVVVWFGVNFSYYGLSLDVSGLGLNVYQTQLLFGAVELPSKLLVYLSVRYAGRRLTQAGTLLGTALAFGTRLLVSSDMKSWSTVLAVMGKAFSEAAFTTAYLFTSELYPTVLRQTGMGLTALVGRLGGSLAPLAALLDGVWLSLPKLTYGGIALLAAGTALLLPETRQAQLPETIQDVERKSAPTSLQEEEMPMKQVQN
Experimental: as §1, §2
(Cell line) at 37°C [min] [h]
OAT2v1 cGMP (1.5) / Mock-B- Poly-D-lysine
as §3, §4, §5
4.4 Organic anion transporter OAT2v1 […]
expressed as mean (n=3) ± SD. Concentrations are nominal.
Table S13: ([α,β-3H]Nal)Lu-PSMA-617-accumulation in OAT2v1 transporter expressing (HEK293-OAT2v1-LV) and […]
as §6
Compound Nominal In OAT2v1 Fold concentration Minutes transporter In control Active accumulation
as §7, §8

[4] = target: MRP1 (Homo sapiens, UniProt P33527)
[5] = target: T4, human PEPT2 (Homo sapiens, UniProt Q16348); assay: SLC transporter substrate assay, CHO-K1-PEPT2 vs control CHO-K1 cells; details: 8 min
T4 sequence (Q16348 1-729): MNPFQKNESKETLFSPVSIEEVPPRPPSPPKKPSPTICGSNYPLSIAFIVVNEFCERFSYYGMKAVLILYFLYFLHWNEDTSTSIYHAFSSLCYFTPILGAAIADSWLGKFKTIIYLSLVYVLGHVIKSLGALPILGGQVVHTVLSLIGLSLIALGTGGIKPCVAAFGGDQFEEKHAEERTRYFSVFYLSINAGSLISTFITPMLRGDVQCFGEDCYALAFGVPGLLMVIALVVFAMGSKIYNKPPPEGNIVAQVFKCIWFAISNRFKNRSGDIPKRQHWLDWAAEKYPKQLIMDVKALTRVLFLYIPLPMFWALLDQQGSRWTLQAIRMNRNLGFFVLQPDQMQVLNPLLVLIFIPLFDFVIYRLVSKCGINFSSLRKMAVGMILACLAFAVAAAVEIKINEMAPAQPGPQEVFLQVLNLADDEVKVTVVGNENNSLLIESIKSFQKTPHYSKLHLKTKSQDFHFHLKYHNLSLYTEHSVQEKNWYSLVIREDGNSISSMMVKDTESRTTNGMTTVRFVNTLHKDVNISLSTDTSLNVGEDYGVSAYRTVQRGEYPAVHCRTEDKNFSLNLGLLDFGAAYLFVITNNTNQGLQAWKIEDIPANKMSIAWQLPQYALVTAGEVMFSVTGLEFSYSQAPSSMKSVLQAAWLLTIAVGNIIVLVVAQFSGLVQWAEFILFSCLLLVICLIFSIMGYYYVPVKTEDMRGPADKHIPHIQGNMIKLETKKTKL
Experimental: The described cells were plated onto standard 24-well tissue culture plates at densities of 5 × 10^5 cells/well. […] Before starting the experiment, the cells were prepared by removing the medium and washing the cells twice with 300 µL of assay buffer. […] The cells were lysed by adding 300 µL of 0.1N NaOH, they were incubated for 10 min at 37 °C and 100 µL samples were taken from all the wells.
The amount of protein in each well was quantified using the BCA kit for protein determination (Sigma-Aldrich, St Louis, MO, USA). Positive controls were performed using a separate 96-well plate format according to Table S8 in SI4.
as §1
Table S8: Parameters of positive controls, control cell lines and plating for SLC transporters assays.
KH: Krebs-Henseleit buffer, HBSS: Hank's balanced salt solution, MES: 2 -(N-morpholino) ethanesulfonic acid, cGMP:
Guanosine cyclic phosphate, E3S: Estrone -3-sulfate, Gly-Sar: Glycylsarcosine, MPP+: 1-methyl-4-phenylpyridinium.
Calculation of fold accumulation values for SLC transporter substrate assays The fold accumulation value was defined as the ratio of uptake of the test substance (TS) or probe substrate into transfected and control cells. If the fold accumulation is > 2 and can be inhibited by a known inhibitor of the transporter, the test substance can be considered as a substrate of the respective transporter.
as §3
• UPTTRP: accumulated amount of test substance (TS) or probe substrate in transfected cells normalized by protein content […]
• UPTCTRL: accumulated amount of test substance (TS) or probe substrate in control cells normalized by protein content […]
Positive control conducted at pH 5.0.
Gly-Sar: Glycylsarcosine.

[6] = target: T5, human OAT1 (Homo sapiens, UniProt Q4U2R8); assay: SLC transporter substrate assay, HEK293-OAT1-LV vs control HEK293-Mock-B-LV cells; details: 2 min
T5 sequence (Q4U2R8 1-563): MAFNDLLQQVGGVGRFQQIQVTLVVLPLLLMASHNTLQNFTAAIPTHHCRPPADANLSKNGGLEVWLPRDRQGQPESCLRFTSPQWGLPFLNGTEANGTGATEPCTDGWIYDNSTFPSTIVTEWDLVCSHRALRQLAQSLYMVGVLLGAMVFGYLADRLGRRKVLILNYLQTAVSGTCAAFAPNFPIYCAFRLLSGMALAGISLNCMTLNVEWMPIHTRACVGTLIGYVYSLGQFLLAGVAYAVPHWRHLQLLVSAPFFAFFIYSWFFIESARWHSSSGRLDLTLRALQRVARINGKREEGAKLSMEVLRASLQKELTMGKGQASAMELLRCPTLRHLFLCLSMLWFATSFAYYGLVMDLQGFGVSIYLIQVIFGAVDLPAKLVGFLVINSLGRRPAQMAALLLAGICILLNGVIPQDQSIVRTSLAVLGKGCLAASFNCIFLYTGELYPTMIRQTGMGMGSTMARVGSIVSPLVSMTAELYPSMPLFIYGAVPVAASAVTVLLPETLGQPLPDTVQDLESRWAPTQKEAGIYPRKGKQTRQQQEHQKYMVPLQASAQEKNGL

[7] = positive control: MPP+ 0.02 µM + Quinidine 1000 µM
[8] = positive control: cGMP 1.82 µM + Indomethacin 300 µM
[9] = positive control inhibitor 200.0 µM, E217βG probe, mean (n=3) ± SD
[10] = positive control at pH 5.0: Gly-Sar 4 µM + Cefadroxil 200 µM
[11] = positive control at pH 5.0: Gly-Sar 4 µM
[12] = positive control: Tenofovir 5 µM + Probenecid 300 µM
[13] = positive control: Tenofovir 5 µM

MRP1, sequence (P33527 whole entry): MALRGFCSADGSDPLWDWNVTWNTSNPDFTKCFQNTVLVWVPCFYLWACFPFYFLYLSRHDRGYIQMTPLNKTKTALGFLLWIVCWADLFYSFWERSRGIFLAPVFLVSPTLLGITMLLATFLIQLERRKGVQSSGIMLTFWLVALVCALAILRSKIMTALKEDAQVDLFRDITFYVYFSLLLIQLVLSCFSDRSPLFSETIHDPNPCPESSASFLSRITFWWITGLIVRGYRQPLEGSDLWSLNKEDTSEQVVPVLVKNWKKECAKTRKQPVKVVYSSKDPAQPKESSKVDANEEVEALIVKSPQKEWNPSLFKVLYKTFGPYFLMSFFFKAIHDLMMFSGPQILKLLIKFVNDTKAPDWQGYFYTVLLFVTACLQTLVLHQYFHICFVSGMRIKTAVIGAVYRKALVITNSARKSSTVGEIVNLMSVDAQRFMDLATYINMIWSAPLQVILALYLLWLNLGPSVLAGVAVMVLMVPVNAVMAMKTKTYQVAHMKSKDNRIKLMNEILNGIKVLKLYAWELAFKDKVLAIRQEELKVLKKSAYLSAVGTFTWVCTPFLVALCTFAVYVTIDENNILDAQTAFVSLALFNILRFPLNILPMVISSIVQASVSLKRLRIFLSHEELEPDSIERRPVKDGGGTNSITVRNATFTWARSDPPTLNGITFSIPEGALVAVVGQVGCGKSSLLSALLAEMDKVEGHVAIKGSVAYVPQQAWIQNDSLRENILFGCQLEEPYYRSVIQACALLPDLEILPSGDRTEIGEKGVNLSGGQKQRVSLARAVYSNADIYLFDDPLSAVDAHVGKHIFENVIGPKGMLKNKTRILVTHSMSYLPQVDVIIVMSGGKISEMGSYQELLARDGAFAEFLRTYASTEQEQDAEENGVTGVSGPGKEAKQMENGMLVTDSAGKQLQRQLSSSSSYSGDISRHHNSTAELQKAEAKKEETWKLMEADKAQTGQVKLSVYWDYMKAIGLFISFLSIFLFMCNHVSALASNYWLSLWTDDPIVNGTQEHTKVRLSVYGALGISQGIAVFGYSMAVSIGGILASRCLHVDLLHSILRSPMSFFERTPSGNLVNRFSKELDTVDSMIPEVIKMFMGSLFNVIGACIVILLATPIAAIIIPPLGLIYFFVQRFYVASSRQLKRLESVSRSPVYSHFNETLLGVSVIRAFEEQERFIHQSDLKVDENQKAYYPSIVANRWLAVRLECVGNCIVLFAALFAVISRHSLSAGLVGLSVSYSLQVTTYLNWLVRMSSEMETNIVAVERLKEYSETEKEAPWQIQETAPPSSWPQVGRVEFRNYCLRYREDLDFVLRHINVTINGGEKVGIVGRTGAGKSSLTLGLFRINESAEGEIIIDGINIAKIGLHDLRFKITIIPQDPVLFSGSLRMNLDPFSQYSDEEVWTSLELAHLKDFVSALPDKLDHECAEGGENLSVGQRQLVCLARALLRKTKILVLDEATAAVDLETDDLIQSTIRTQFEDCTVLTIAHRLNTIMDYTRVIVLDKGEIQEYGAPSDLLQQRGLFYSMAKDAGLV

C[n+]1ccc(-c2ccccc2)cc1 [MPP+, 1-Methyl-4-phenylpyridin-1-ium, reference compound]
Accumulation in OCT3 transporter expressing cells [1, 7]: 1429.667 cpm | Accumulation in control cells [1, 7]: 233.000 cpm | Accumulation, active transport [1, 7]: 1196.667 cpm | Fold accumulation [1, 7]: 6.14 | Accumulation in OCT3 transporter expressing cells ([1]; positive control: MPP+ 0.02 µM): 10728.333 cpm | Accumulation in control cells ([1]; positive control: MPP+ 0.02 µM): 629.333 cpm | Accumulation, active transport ([1]; positive control: MPP+ 0.02 µM): 10099.000 cpm | Fold accumulation ([1]; positive control: MPP+ 0.02 µM): 17.05

C[C@]12CC[C@@H]3c4ccc(OS(=O)(=O)[O-])cc4CC[C@H]3[C@@H]1CCC2=O.[Na+] [E3S, estrone-3-sulfate sodium salt, reference compound]
Fold accumulation ([2]; positive control: E3S 1 µM + Benzbromarone 300 µM): 5.12 | Fold accumulation ([2]; positive control: E3S 1 µM): 24.16

Nc1nc2c(ncn2[C@@H]2O[C@@H]3COP(=O)(O)O[C@H]3[C@H]2O)c(=O)[nH]1 [cGMP, guanosine 3′,5′-cyclic monophosphate, reference compound]
Accumulation in OAT2v1 transporter expressing cells [3, 8]: 551.67 cpm | Accumulation in control cells [3, 8]: 67.67 cpm | Accumulation, active transport [3, 8]: 484.00 cpm | Fold accumulation [3, 8]: 8.15 | Accumulation in OAT2v1 transporter expressing cells ([3]; positive control: cGMP 1.82 µM): 9207.33 cpm | Accumulation in control cells ([3]; positive control: cGMP 1.82 µM): 75.00 cpm | Accumulation, active transport ([3]; positive control: cGMP 1.82 µM): 9132.33 cpm | Fold accumulation ([3]; positive control: cGMP 1.82 µM): 122.76

CCc1oc2ccccc2c1C(=O)c1cc(Br)c(O)c(Br)c1 [Benzbromarone, benzbromarone, reference compound]
inhibition at 3 min, 200 µM ([4]; human, membrane vesicles from Sf9 cells transfected with human MRP1, […], 0.2 µM): 104% | ATP dependent transport [4, 9]: -26.33 ± 10.19 pmol/mg/min | Relative ATP dependent transport [4, 9]: -3.87 ± 1.50 % of control

CN(CC(=O)O)C(=O)CN [Gly-Sar, glycylsarcosine, reference compound] (H-Gly-[Sar]-OH)
Accumulation in PEPT2 transporter expressing cells [5, 10]: 263.67 cpm | Accumulation in control cells [5, 10]: 34.33 cpm | Accumulation, active transport [5, 10]: 229.33 cpm | Fold accumulation [5, 10]: 7.68 | Accumulation in PEPT2 transporter expressing cells [5, 11]: 1570.00 cpm | Accumulation in control cells [5, 11]: 31.33 cpm | Accumulation, active transport [5, 11]: 1538.67 cpm | Fold accumulation [5, 11]: 50.11

C[C@H](Cn1cnc2c(N)ncnc21)OCP(=O)(O)O [Tenofovir, tenofovir, reference compound]
Accumulation in OAT1 transporter expressing cells [6, 12]: 372.67 cpm | Accumulation in control cells [6, 12]: 77.00 cpm | Accumulation, active transport [6, 12]: 295.67 cpm | Fold accumulation [6, 12]: 4.84 | Accumulation in OAT1 transporter expressing cells [6, 13]: 7739.67 cpm | Accumulation in control cells [6, 13]: 85.00 cpm | Accumulation, active transport [6, 13]: 7654.67 cpm | Fold accumulation [6, 13]: 91.05
